Laboratory results: patent US8288380B2, “Thiophenediamine derivative having urea structure” (Santen Pharmaceutical Co., Ltd., priority 2008, dated 2012)

Assays:
[1] = system: HDAC (HeLa nuclear extract); assay: Test for evaluation of HDAC inhibitory activity (HDAC Fluorimetric Assay/Drug Discovery Kit, Biomol); assay type: biochemical; conditions: final concentration of the test compound 30 μM, values more than 100% shown as 100%
Experimental: Using HDAC Fluorimetric Assay/Drug Discovery Kit (manufactured by Biomol), HDAC inhibitory activity of the present compounds was measured according to the protocol included with the kit. The kit contains Buffer, HeLa nuclear extract (includes HDAC), Substrate, Developer and Trichostatin A HDAC inhibitor).
A test compound was dissolved in dimethyl sulfoxide (hereinafter referred to as “DMSO”), whereby a 2 mg/mL solution was prepared. Then, the resulting solution was diluted with Buffer containing 5% DMSO, whereby a 150 μM test compound solution was prepared.
1) To a 384-well culture plate, the test compound solution was added in an amount of 2 μL per well.
2) HeLa nuclear extract was diluted 30-fold with Buffer. The resulting solution was added in an amount of 3 μL per well, and then incubation was performed at 37° C. for 2 hours.
3) Substrate was diluted 500-fold with Buffer. The resulting solution was added in an amount of 5 μL per well (the final concentration of the test compound was 30 μM), and then incubation was performed at 37° C. for 10 minutes.
4) Developer was diluted 20-fold with Buffer and Trichostatin A (2 μM) was added to it. The resulting solution was added in an amount of 10 μL per well, and then incubation was performed at room temperature for 15 minutes.
5) The fluorescence intensity of each well was measured using multilabel counter ARVO (manufactured by Wallac) with excitation at 360 nm and emission at 460 nm.
6) A control data was obtained from the same experiment except that Buffer containing 5% DMSO was added instead of the test compound solution as the above-mentioned procedure from 1) to 5).
7) A blank data was obtained from the same experiment except that Buffer containing 5% DMSO was added instead of the test compound solution and that Buffer was added instead of Hela nuclear extract as the above-mentioned procedure from 1) to 5).
Enzyme inhibitory rate (%) was calculated using the following equation. (Enzyme Inhibitory Rate(%))=100×[1−{(Fluorescence Intensity of Test Compound Solution)−(Florescence Intensity of Blank)}/{(Florescence Intensity of Control)−(Florescence Intensity of Blank)}] (Test Results)

[2] = system: human trabecular meshwork cell line (TM-1 cells); assay: Test for evaluation of effect of morphological change on trabecular meshwork cells (cell shape index, CSI); assay type: cell-based; conditions: final concentration 10 μM, 24 hours incubation, Control 0.694, lower CSI indicates greater morphological changes
Text: Further, as a result of studying an effect morphological change of the present compound on trabecular meshwork cells, i.e., an effect of morphological change of the present compound on trabecular meshwork cells in an evaluation system using the cell shape index (hereinafter referred to as “CSI”) reported in The Journal of Clinical Investigation, 103, 1141-1150 (1999) as an index, it was found the present compound has an excellent effect of morphological change on trabecular meshwork cells.
As a method for evaluating a cellular morphological change, an evaluation system using the cell shape index (hereinafter referred to as “CSI”) as an index has been reported in The Journal of Clinical Investigation, 103, 1141-1150 (1999). Therefore, according to the method described in the above document, an effect of morphological change of the present compounds on trabecular meshwork cells was evaluated.
A human trabecular meshwork cell line (hereinafter referred to as “TM-1 cells”) reported in Investigative Ophthalmology & Visual Science, 43, 151-161 (2002) was used.
Culture medium 1: A reagent was prepared by adding fetal bovine serum (10%), L-glutamine (2 mM), amphotericin B ([…]), and gentamicin (25 μg/mL) to Dulbecco's Modified Eagle Medium (hereinafter referred to as “D-MEM”).
Culture medium 2: A reagent was prepared by adding fetal bovine serum (3%), L-glutamine (2 mM), amphotericin B (2.5 μg/mL), and gentamicin (25 μg/mL) were added to D-MEM.
Cell staining liquid: A mixed liquid of Calcein-AM (16 μM) and Hoechst 33342 (40 μM) was prepared by diluting a Calcein-AM solution (cytoplasmic staining reagent, manufactured by Dojindo Laboratories) and a Hoechst 33342 solution (nuclear staining reagent, manufactured by Dojindo Laboratories) with D-MEM containing L-glutamine (2 mM), amphotericin B (2.5 μg/mL), and gentamicin (25 μg/mL).
TM-1 cells subcultured at 37° C. in a 8% carbon dioxide gas atmosphere were treated with a trypsin/EDTA solution (0.05% trypsin and 0.53 mM tetrasodium ethylenediaminetetraacetate) at 24 hours before performing a drug treatment mentioned below and seeded on a 96-well culture plate. The culture medium 1 was used for the subculture of the cells. The culture medium 2 was used for the cell culture after seeding the cells on the plate.
A test compound was dissolved in DMSO, whereby a 5 mM solution was prepared. Then, the resulting solution was diluted with the culture medium 2, whereby a 200 μM test compound solution was prepared.
It has been reported that Y-27632 which is a Rho kinase inhibitor induces a morphological change in trabecular meshwork cells in Investigative Ophthalmology & Visual Science, 42, 137-144 (2001). Therefore, Y-27632 (produced according to the method described in WO 90/05723) was used as a positive control, and dissolved in DMSO in the same manner as the test compound, whereby a 5 mM solution was prepared, and then, the resulting solution was diluted with the culture medium 2, whereby a 200 μM positive control compound solution was prepared.
1) To a 96-well culture plate, a solution of TM-1 cells adjusted to a cell density of […] was added in an amount of 95 μL (1.5×10^4 cells) per well.
2) Incubation was performed at 37° C. in a 8% carbon dioxide gas atmosphere for 24 hours.
3) The test compound solution or positive control compound solution was added in an amount of 5 μL per well (the final concentration of the test compound or positive control compound was 10 μM). As a control, the culture medium 2 containing DMSO (4%) was added in an amount of 5 μL per well.
4) Incubation was performed at 37° C. in a 8% carbon dioxide gas atmosphere for 24 hours.
5) The cell staining liquid was added in an amount of 10 μL per well.
6) Incubation was performed at 37° C. in a 8% carbon dioxide gas atmosphere for 1 hour to stain the cells.
7) A 37% formaldehyde solution was added in an amount of 10 μL per well.
8) Incubation was performed at room temperature for 1 hour to fix the cells. […]

[3] = system: male Japanese White rabbits; assay: Test for evaluation of intraocular pressure-lowering effect (intracameral administration); assay type: in vivo, rabbit; conditions: intracameral administration of 20 μL of 1 mM liquid, at 9 hours after administering, versus vehicle control group
Text: Further, as a result of studying an effect of intraocular pressure reduction of the present compound through intracameral administration using male Japanese white rabbits in order to confirm an actual effect of intraocular pressure reduction of the present compound, it was confirmed that the present compound has an effect of intraocular pressure reduction. […]
One drop of 0.4% oxybuprocaine hydrochloride eye drop was instilled into both eyes of each male Japanese White rabbit to achieve local anesthesia, and thereafter, the intraocular pressure was measured using an applanation tonometer. […] After the lapse of a certain period of time from the administration of the test compound or vehicle, one drop of 0.4% oxybuprocaine hydrochloride eye drop was instilled into the administered eye to achieve local anesthesia, and thereafter, the intraocular pressure was measured using an applanation tonometer.
The intraocular pressure-lowering effect of each test compound was evaluated by calculating an intraocular pressure reduction rate. The intraocular pressure reduction rate (%) was calculated using the following equation. […]

## CC(C)NC(=O)N(CCN(C)C)Cc1ccc(C(=O)Nc2cscc2N)nc1 [Compound No. 1-43, N-(4-Aminothiophen-3-yl)-5-[1-(2-dimethylaminoethyl)-3-isopropylureidomethyl]pyridine-2-carboxylic acid amide]
[1]
  Enzyme Inhibitory Rate (%): 100%
[2]
  CSI: 0.522
[3]
  Intraocular Pressure Reduction Rate (%): 7%

## CCCNC(=O)N(CCCCN1CCOCC1)Cc1ccc(C(=O)Nc2cscc2N)nc1 [Compound No. 1-82, N-(4-Aminothiophen-3-yl)-5-[1-[4-(morpholin-4-yl)butyl]-3-propylureidomethyl]pyridine-2-carboxylic acid amide]
[1]
  Enzyme Inhibitory Rate (%): 96%
[2]
  CSI: 0.507
[3]
  Intraocular Pressure Reduction Rate (%): 25%
